# Experimental data reported in patent US5041567A, “Antibacterial monic acid derivatives” (Beecham Group plc, priority 1982, dated 1991).
# Where two headings read alike, the source gives them in different places.
# Assays:
# [1] = tested on: M. suipneumoniae ATCC 25095; assay: MIC against mycoplasma in vitro; assay type: cell-based; conditions: Mesomycoplasma hyopneumoniae, ATCC25095, 144 h
# [2] = tested on: M. suipneumoniae J2206/183^b; assay: MIC against mycoplasma in vitro; assay type: cell-based; conditions: Mesomycoplasma hyopneumoniae, 144 h
# Bacillus subtilis 6633 = assay: MIC against human bacteria in vitro; assay type: cell-based; conditions: Bacillus subtilis 6633; 5% chocolated horse blood agar, 18 hours; read-out: MIC
# Past. haemolytica PA5 = assay: MIC against veterinary bacteria in vitro; conditions: Mannheimia haemolytica, PA5, 18 h
# Experimental: (§1) The activity of the compounds of the Examples against various veterinarily important bacteria, was assayed in vitro using two-fold serial dilutions in Diagnostic Sensitivity Test Agar inoculated with 10^4 organisms.
# Staph. aureus Oxford [3] = assay: MIC against human bacteria in vitro; assay type: cell-based; conditions: Staphylococcus aureus; Staph. aureus Oxford; 5% chocolated horse blood agar, 18 hours; read-out: MIC
# Sarcina lutea 8340 = assay: MIC against human bacteria in vitro; assay type: cell-based; conditions: Micrococcus luteus; Sarcina lutea 8340; 5% chocolated horse blood agar, 18 hours; read-out: MIC
# Staph. aureus Oxford [4] = assay: MIC against veterinary bacteria in vitro; conditions: Staphylococcus aureus, 18 h
# Experimental: as §1
# M. suipneumoniae JF 435 = assay: MIC against mycoplasma in vitro; assay type: cell-based; conditions: Mesomycoplasma hyopneumoniae, JF435, 144 h
# M. hyorhinis ATCC 23234 = assay: MIC against mycoplasma in vitro; assay type: cell-based; conditions: Mesomycoplasma hyorhinis, ATCC23234, 144 h
# [5] = tested on: Staph. aureus B4 (pen. resistant); assay: MIC against veterinary bacteria in vitro; conditions: Staphylococcus aureus, 18 h
# Experimental: as §1
# Staph. aureus W2827 = assay: MIC against human bacteria in vitro; assay type: cell-based; conditions: Staphylococcus aureus; Staph. aureus W2827; 5% chocolated horse blood agar, 18 hours; read-out: MIC
# E. coli ESS = assay: MIC against human bacteria in vitro; assay type: cell-based; conditions: Escherichia coli; E. coli ESS; 5% chocolated horse blood agar, 18 hours; read-out: MIC
# [6] = tested on: Haemophilus influenzae Wy21; assay: MIC against human bacteria in vitro; assay type: cell-based
# M. suipneumoniae LABER = assay: MIC against mycoplasma in vitro; assay type: cell-based; conditions: Mesomycoplasma hyopneumoniae, 144 h
# [7] = tested on: Corynebacterium pyogenes CY1; assay: MIC against veterinary bacteria in vitro; conditions: CY1, 18 h
# Experimental: as §1
# Past. multocida PA2 = assay: MIC against veterinary bacteria in vitro; conditions: Pasteurella multocida, PA2, 18 h
# Experimental: as §1
# Strep. agalactiae SPA1 = assay: MIC against veterinary bacteria in vitro; conditions: Streptococcus agalactiae, SPA1, 18 h
# Experimental: as §1
# [8] = tested on: M. suipneumoniae NCTC 10110; assay: MIC against mycoplasma in vitro; assay type: cell-based; conditions: Mesomycoplasma hyopneumoniae, NCTC10110, 144 h
# Bord. bronchiseptica B08 = assay: MIC against veterinary bacteria in vitro; conditions: Bordetella bronchiseptica, B08, 18 h
# Experimental: as §1
# [9] = tested on: Strep. suis (group D) SPS11; assay: MIC against veterinary bacteria in vitro; conditions: Streptococcus suis, 18 h
# Experimental: as §1
# M. dispar NCTC 10125 = assay: MIC against mycoplasma in vitro; assay type: cell-based; conditions: 144 h
# [10] = tested on: M. hyosynoviae ATCC 25591; assay: MIC against mycoplasma in vitro; assay type: cell-based; conditions: 144 h
# M. pneumoniae ATCC 15492 = assay: MIC against mycoplasma in vitro; assay type: cell-based; conditions: Mycoplasmoides pneumoniae, ATCC15492, 144 h
# M. hyorhinis ATCC 25021 = assay: MIC against mycoplasma in vitro; assay type: cell-based; conditions: Mesomycoplasma hyorhinis, ATCC25021, 144 h
# [11] = tested on: Corynebacterium xerosis 9755; assay: MIC against human bacteria in vitro; assay type: cell-based; conditions: Corynebacterium xerosis 9755; 5% chocolated horse blood agar, 18 hours; read-out: MIC
# [12] = tested on: Pasteurella multocida 1633; assay: MIC against human bacteria in vitro; assay type: cell-based; conditions: Pasteurella multocida 1633; 5% chocolated horse blood agar, 18 hours; read-out: MIC
# Strep. agalactiae 2788-B = assay: MIC against human bacteria in vitro; assay type: cell-based; conditions: Streptococcus agalactiae; Strep. agalactiae 2788-B; 5% chocolated horse blood agar, 18 hours; read-out: MIC
# Past. multocida PA1 = assay: MIC against veterinary bacteria in vitro; conditions: Pasteurella multocida, PA1, 18 h
# Experimental: as §1
# M. suipneumoniae HK(2) = assay: MIC against mycoplasma in vitro; assay type: cell-based; conditions: Mesomycoplasma hyopneumoniae, 144 h
# M. suipneumoniae UCD 1 = assay: MIC against mycoplasma in vitro; assay type: cell-based; conditions: Mesomycoplasma hyopneumoniae, UCD1, 144 h
# S. dublin S7 = assay: MIC against veterinary bacteria in vitro; conditions: Salmonella enterica, S7, 18 h
# Experimental: as §1
# Staph. aureus Russell = assay: MIC against human bacteria in vitro; assay type: cell-based; conditions: Staphylococcus aureus; Staph. aureus Russell; 5% chocolated horse blood agar, 18 hours; read-out: MIC
# [13] = tested on: M. suipneumoniae PW/C/210; assay: MIC against mycoplasma in vitro; assay type: cell-based; conditions: Mesomycoplasma hyopneumoniae, 144 h
# [14] = tested on: Erysipelothrix rhusiopathiae NCTC 8163; assay: MIC against veterinary bacteria in vitro; conditions: Erysipelothrix rhusiopathiae, NCTC8163, 18 h
# Experimental: as §1
Structure (SMILES),MIC (Bacillus subtilis 6633) [µg/mL],MIC (Past. haemolytica PA5) [µg/mL],MIC (Staph. aureus Oxford [3]) [µg/mL],MIC (Sarcina lutea 8340) [µg/mL],MIC (Staph. aureus Oxford [4]) [µg/mL],MIC [5] [µg/mL],MIC (Staph. aureus W2827) [µg/mL],MIC (E. coli ESS) [µg/mL],MIC [7] [µg/mL],MIC (Past. multocida PA2) [µg/mL],MIC (Strep. agalactiae SPA1) [µg/mL],MIC (Bord. bronchiseptica B08) [µg/mL],MIC [9] [µg/mL],MIC (M. dispar NCTC 10125) [µg/mL],MIC [11] [µg/mL],MIC [12] [µg/mL],MIC (Strep. agalactiae 2788-B) [µg/mL],MIC (Past. multocida PA1) [µg/mL],MIC (M. suipneumoniae UCD 1) [µg/mL],MIC (S. dublin S7) [µg/mL],also measured
"C/C(=C\c1ncc(-c2ccsc2)o1)C[C@@H]1OC[C@H](C[C@@H]2O[C@H]2[C@@H](C)[C@H](C)O)[C@@H](O)[C@H]1O [Example 20, 5-(3-Thienyl)-2-(1-normon-2-yl) oxazole A]",0.5,80,4,> 128,2.55,0.63,4,4,> 80,0.312,1.25,80,40,0.25,> 128,4,2,2.5,1,> 80,"MIC ([1]; M. suipneumoniae ATCC 25095, 6 days, 37° C., read-out: MIC): 0.5 µg/mL; MIC [2]: 1 µg/mL; MIC (M. suipneumoniae JF 435): 1 µg/mL; MIC (M. hyorhinis ATCC 23234; M. hyorhinis ATCC 23234, 6 days, 37° C., read-out: MIC): 0.5 µg/mL; MIC ([6]; Haemophilus influenzae, WY21, 18 h): 0.5 µg/mL; MIC (M. suipneumoniae LABER; M. suipneumoniae LABER, 6 days, 37° C., read-out: MIC): 0.5 µg/mL; MIC [8]: 1 µg/mL; MIC ([10]; M. hyosynoviae ATCC 25591, 6 days, 37° C., read-out: MIC): 0.5 µg/mL; MIC (M. pneumoniae ATCC 15492; M. pneumoniae ATCC 15492, 6 days, 37° C., read-out: MIC): 0.5 µg/mL; MIC (M. hyorhinis ATCC 25021; M. hyorhinis ATCC 25021, 6 days, 37° C., read-out: MIC): 0.5 µg/mL; MIC (M. suipneumoniae HK(2)): 1 µg/mL; MIC (Staph. aureus Russell): 4 µg/mL; MIC ([13]; M. suipneumoniae PW/C/210, 6 days, 37° C., read-out: MIC): 0.5 µg/mL; MIC [14]: 80 µg/mL"
"C/C(=C\c1ncc(-c2ccc(C#N)cc2)o1)C[C@@H]1OC[C@H](C[C@@H]2O[C@H]2[C@@H](C)[C@H](C)O)[C@@H](O)[C@H]1O [Example 21, 5-p-Cyanophenyl-2-(1-normon-2-yl) oxazole A]",1,20,4,> 128,2.5,1.25,4,4,> 80,0.625,1.25,40,10,0.1,> 128,8,4,2.5,0.25,> 80,"MIC [1]: 0.25 µg/mL; MIC ([2]; M. suipneumoniae J2206/183^b, 6 days, 37° C., read-out: MIC): 0.5 µg/mL; MIC (M. suipneumoniae JF 435; M. suipneumoniae JF 435, 6 days, 37° C., read-out: MIC): 0.5 µg/mL; MIC (M. hyorhinis ATCC 23234): 0.25 µg/mL; MIC ([6]; Haemophilus influenzae Wy21, 5% chocolated horse blood agar, 18 hours, read-out: MIC): 2 µg/mL; MIC (M. suipneumoniae LABER): 0.25 µg/mL; MIC ([8]; M. suipneumoniae NCTC 10110, 6 days, 37° C., read-out: MIC): 0.5 µg/mL; MIC [10]: 0.1 µg/mL; MIC (M. pneumoniae ATCC 15492): 0.25 µg/mL; MIC (M. hyorhinis ATCC 25021): 0.25 µg/mL; MIC (M. suipneumoniae HK(2); M. suipneumoniae HK(2), 6 days, 37° C., read-out: MIC): 0.5 µg/mL; MIC (Staph. aureus Russell): 4 µg/mL; MIC [13]: 0.25 µg/mL; MIC [14]: 40 µg/mL"
